The values below come from publication PMC10502144, “Anti-methicillin-resistant Staphylococcus aureus activity and safety evaluation of 14-O-[(5-ethoxycarbonyl-4,6-dimethylpyrimidine-2-yl) thioacetyl] mutilin (EDT)” (Scientific Reports, 2023).

Read-outs that look alike come from different tables or passages of the source. Marks after values point to notes of the source that are not given here.

The test system of data set [1] is Salmonella Typhimurium TA97a. Nature of the data set: Ames test, TA97a. The note with it: positive control 50 μg/plate, −S9. The protocol:
(§1) Before the test, Salmonella Typhimurium (S. Typhimurium) TA97a, TA98, TA100, TA102, TA1535 and Escherichia coli WP2uvrA pKM101 (pKM101) were first checked for their genetic integrity, including biotin dependence, rfa marker (crystal violet), biotin, histidine dependence and presence of the plasmid pKM101 (ampicillin resistance) or pAQ1 (tetracycline resistance). […] The maximum concentration of EDT was also screened using a preliminary experiment.
(§2) DMSO (0.1 mL) was directly incorporated into 1.9 mL melted top agar as the vehicle control. […] Each strain (0.1 mL, 6–7 log10 CFU/mL) was added into 2 mL of top agar in which comprised 0.5 mL S9 (10%), serial concentrations of EDT (2000, 400, 80, 16 and 3.2 μg/plate), DMSO or control chemicals for testing with the S9. For testing without S9, 0.5 mL phosphate buffer saline (PBS, pH 7.4) replaced the S9 mix. Then, the obtained top agar was melted, poured onto the surface of […] and swirled to distribute the top agar to all surfaces of medium, followed by incubation at 37 °C for 48 h. The resultant colonies were counted manually as the number of revertant colonies per plate. The experiments were performed in triplicate and the results were expressed as the average ± SD.
For orientation: In the Ames test, an excess of revertant colonies over the control signals mutagenicity.

The subject of data set [2] is Salmonella Typhimurium TA98. Description: Ames test, TA98. The note with it: TA98, positive control 50 μg/plate, −S9. The protocol:
as §1, §2

Data set [3] concerns Salmonella Typhimurium TA102. Nature of the data set: Ames test, TA102. As to conditions: TA102, positive control 50 μg/plate, −S9. How it is done:
as §1, §2

In data set [4] the test system is Salmonella Typhimurium TA1535. The protocol: as §1, §2
For data set [5], the system named is Salmonella Typhimurium TA100. Nature of the data set: Ames test, TA100. The class given is cell-based. As to conditions: TA100, positive control 1μL/plate, −S9. The protocol:
as §1, §2

Data set [6] concerns Escherichia coli WP2uvrA pKM101. Description: Ames test, pKM101. How it is done: as §1, §2

Turning to `CN(C)c1ccc(N=NS(=O)(=O)[O-])cc1.[Na+]` [diaxone, reference compound], the “number of revertant colonies per plate” value in data set [1] is 2472.00 ± 94.00^b; in data set [2] it was 972.00 ± 37.00^b; in data set [3] it was 522.00 ± 45.00^b. With `[N-]=[N+]=[N-].[Na+]` [sodium azide, reference compound], the “number of revertant colonies per plate” value in data set [4] (TA1535, positive control 1.5 μg/plate, −S9) is 534.33 ± 38.67^e. On to `Nc1ccc2cc3ccccc3cc2c1` [2-aminoanthracene, reference compound], for which the “number of revertant colonies per plate” value in data set [4] (TA1535, positive control 10 μg/plate, +S9) is reported as 740.00 ± 44.00^d. methyl sulfonate [reference compound]: the “number of revertant colonies per plate” value in data set [5] was 1017.33 ± 39.67^c; in data set [6], 644.00 ± 38.00^c.
